# ChEMBL document CHEMBL5244250, “Natural sesquiterpenoid oligomers: A chemical perspective” (Eur J Med Chem, 2020)
# Tests used:
# HL-60 [1] = assay: Cytotoxicity against human HL-60 cells incubated for 48 hrs by WST-8 assay; assay type: functional, cell-based; details: HL-60, 48 h
# HeLa = assay: Cytotoxicity against human HeLa cells incubated for 48 hrs by WST-8 assay; assay type: functional, cell-based
# B16-F10 = assay: Cytotoxicity against mouse B16-F10 cells incubated for 48 hrs by WST-8 assay; assay type: functional, cell-based; details: B16-F10, 48 h
# MGC-803 = assay: Cytotoxicity against human MGC-803 cells incubated for 48 hrs by MTT based colorimetry assay; assay type: functional, cell-based; details: MGC-803, 48 h
# HepG2 = assay: Cytotoxicity against human HepG2 cells incubated for 48 hrs by MTT based colorimetry assay; assay type: functional, cell-based; details: HepG2, 48 h
# CCRF S-180 = assay: Cytotoxicity against mouse CCRF S-180 cells incubated for 48 hrs by MTT based colorimetry assay; assay type: functional, cell-based; details: CCRF S-180, 48 h
# CCRF-CEM = assay: Cytotoxicity against human CCRF-CEM cells; assay type: functional, cell-based
# HL-60 [2] = assay: Cytotoxicity against human HL-60 cells; assay type: functional, cell-based
# U2OS = assay: Synergistic cytotoxicity in human U2OS cells assessed as combination index in presence of doxorubicin; assay type: functional
# RAW264.7 [3] = assay: Anti-inflammatory activity in LPS induced mouse RAW264.7 cells assessed as inhibition of NO production; assay type: functional, cell-based
# KB = assay: Cytotoxicity against human KB cells assessed as reduction in cell viability; assay type: functional, cell-based
# [4] = Cytotoxicity against human 6T-CEM cells; assay type: functional, cell-based
# RAW264.7 [5] = assay: Anti-inflammatory activity in LPS induced mouse RAW264.7 cells assessed as inhibition of NO production by MTT method; assay type: functional, cell-based
# RAW264.7 [6] = assay: Anti-inflammatory activity in LPS induced mouse RAW264.7 cells assessed as inhibition of NO production pretreated for 1 hr followed by LPS stimulation and measured after 18 hrs by MTT assay; assay type: functional; details: time 19 hrs, read-out: ED50 (the source's name)
# L1210 = assay: Cytotoxicity against mouse L1210 cells assessed as reduction in cell viability; assay type: functional, cell-based
# HL-60 [7] = assay: Cytotoxicity against human HL-60 cells assessed as inhibition of cell growth; assay type: functional, cell-based
# Plasmodium falciparum = assay: Antiplasmodial activity against Plasmodium falciparum; assay type: functional, organism-based
# RAW264.7 [8] = assay: Anti-inflammatory activity in LPS induced mouse RAW264.7 cells assessed as inhibition of NO production measured after 24 hrs by CCK-8 method; assay type: functional, cell-based; details: RAW264.7, 24 h
# HL-60 [9] = assay: Cytotoxicity against human HL-60 cells incubated for 72 hrs by CCK8 assay; assay type: functional, cell-based; details: HL-60, 72 h
# A549 = assay: Cytotoxicity against human A549 cells incubated for 72 hrs by CCK8 assay; assay type: functional, cell-based; details: A549, 72 h
# Bel-7402 = assay: Cytotoxicity against human Bel-7402 cells incubated for 72 hrs by CCK8 assay; assay type: functional, cell-based; details: Bel-7402, 72 h
# HT-29 = assay: Cytotoxicity against human HT-29 cells incubated for 72 hrs by CCK8 assay; assay type: functional, cell-based; details: HT-29, 72 h
# PC-12 = assay: Neuroprotective activity against glutamate-induced neurotoxicity in rat PC-12 cells; assay type: functional, cell-based
compound,measurement,setting,value
C=C1C(=O)O[C@@H]2/C=C(\C)CC/C=C(/C(=O)OC)[C@H](OCC)[C@@H](OC(=O)[C@](C)(O)[C@H](C)OC(=O)/C3=C/CC/C(C)=C/[C@H]4OC(=O)C(=C)[C@@H]4[C@H](OC(=O)/C(C)=C\C)C3)[C@@H]12,IC50,HL-60 [1],200 nM
same,IC50,HeLa,200 nM
same,IC50,B16-F10,200 nM
CC(=O)C1=C(Oc2oc3cc4c(c(C)c3c2C)[C@@H](C)CCC4)C[C@H]2CCC[C@H](C)[C@@]2(C)C1,IC50,MGC-803,11900 nM
same,IC50,HepG2,11900 nM
same,IC50,CCRF S-180,11900 nM
C=C1C(=O)O[C@H]2C[C@H](C)[C@@]34C[C@@H](C[C@@]35C(=O)O[C@@H]3C[C@@]6(C)[C@@H](O)C[C@@H](O)C(=C)[C@@H]6C[C@@H]35)C(C)=C4C[C@H]12,IC50,CCRF-CEM,140 nM
C=C1C(=O)O[C@H]2C[C@H](C)C3=C(C[C@H]12)[C@@]1(C)C[C@@H]3C[C@@]12C(=O)O[C@H]1C=C(C)[C@H]3CC[C@@](C)(O)[C@@H]3C[C@@H]12,IC50,CCRF-CEM,2030 nM
COC(=O)/C(C)=C1\C(=O)[C@H](O)[C@@]2(C)[C@@H]3C[C@@H]3C3=C[C@@]4(C)[C@@]5(C)[C@@H]6C[C@@H]6[C@@]6(O)COC(=O)/C(C)=C/COC(=O)C(O)CC(=O)OCC7=C(C[C@@H]65)[C@@]4(OC7=O)[C@@H]1[C@]32OO (some centres undefined),IC50,HL-60 [2],30 nM
COC(=O)/C(C)=C1\C(=O)[C@H](O)[C@@]2(C)[C@@H]3C[C@@H]3[C@@]34CCC5=C6C3=C(C(=O)[C@H](O)[C@@]6(C)[C@@H]3C[C@H]53)[C@](C)(C(C)=O)[C@@H]1[C@@]24O,CI,U2OS,1.12
C=C1C(=O)O[C@@H]2[C@@H]3[C@@H](C[C@@]4(O)[C@]3(O)CC[C@]43C(=O)C[C@H]4C(=C)CC[C@H]5C(=C)C(=O)O[C@@H]5[C@H]43)C(=C)CC[C@@H]12,IC50,RAW264.7 [3],2.41 µg/mL
C=C1CCC[C@]2(C)CC[C@@H](C(C)C)[C@H](NC(=O)[C@H]3C[C@H](O)C[C@@H](C(=O)N[C@H]4[C@H](C(C)C)CC[C@@]5(C)CCCC(=C)[C@]45C)N3CCC(=O)OC)[C@@H]12,IC50,KB,10.6 µg/mL
C=C1C(=O)O[C@H]2C[C@H](C)C3=C(C[C@H]12)[C@@]1(C)OC(=O)[C@@H](c2ccc(C)c([C@H](C)CCCOC(C)=O)c2)C[C@H]1[C@H]3OC(C)=O,IC50,[4],4400 nM
C=C1CC[C@H]2C(=C)CC[C@@H]3[C@H](OC(=O)[C@H]3C[C@@]3(CC(C)=O)C(=O)O[C@@H]4[C@H]5C(C)=CCCC5(C)CC[C@H]43)[C@@H]12 (some centres undefined),IC50,RAW264.7 [5],7240 nM
C=C1C(=O)O[C@H]2C[C@H](C)C3=C(C[C@H]12)[C@@]1(C)C[C@H]3C[C@@]12C(=O)O[C@@H]1C[C@@]3(C)[C@@H](O)C[C@@H](O)C(=C)[C@@H]3C[C@@H]12,IC50,CCRF-CEM,140 nM
C=C1C(=O)O[C@H]2C[C@@H](C)C3=C(C[C@H]12)[C@@]1(C)C[C@@H]3C[C@@]12C(=O)O[C@@H]1C[C@@]3(C)[C@@H](O)C[C@@H](O)C(=C)[C@@H]3C[C@@H]12,IC50,CCRF-CEM,140 nM
C=C1C(=O)O[C@H]2C[C@H](C)C3=C(C[C@H]12)[C@@]1(C)C[C@@H]3C[C@@]12C(=O)O[C@@H]1C[C@@]3(C)[C@@H](O)C[C@@H](O)C(=C)[C@@H]3C[C@@H]12,IC50,CCRF-CEM,140 nM
C[C@@H]1CC(=O)c2c3c(nc4c2[C@@]1(C)[C@H]1[C@@H](C4=O)C1(C)C)C[C@]1(C)C(=CCC[C@H]1C)C3=O,EC50,RAW264.7 [6],5730 nM
C=C1C(=O)O[C@H]2[C@H]1[C@H](OC(=O)[C@](C)(O)[C@H](C)OC(=O)/C1=C/CC/C(C)=C/[C@H]3OC(=O)C(=C)[C@@H]3[C@H](OC(=O)/C(C)=C\C)C1)[C@@H](OCC)/C(C(=O)OC)=C\CC[C@]1(C)O[C@@H]21,IC50,HL-60 [1],200 nM
same,IC50,HeLa,200 nM
same,IC50,B16-F10,200 nM
C=C1CCC[C@]2(C)CC[C@@H](C(C)C)[C@H](NC(=O)NC(C)(C)[C@@H]3C=C4[C@@H](C)CCC[C@]4(C)CC3)[C@@H]12,IC50,L1210,2.6 µg/mL
same,IC50,KB,2.6 µg/mL
C=C1C(=O)O[C@H]2C[C@H](C)C3=C(C[C@H]12)[C@]1(C)C[C@@H]3C[C@@]12C(=O)O[C@@H]1C[C@@]3(C)[C@@H](O)C[C@@H](O)C(=C)[C@@H]3C[C@@H]12,IC50,CCRF-CEM,140 nM
C=C(C)[C@@H]1c2oc3c(c2C(=O)C2=CCC[C@@H](C)[C@@]21C)C(=O)C[C@]1(C)C3=CCC[C@H]1C,EC50,RAW264.7 [6],23600 nM
C[C@H](O)CC[C@H]1[C@@H]2C[C@H]3[C@@H](C[C@]12C)OC(=O)C31CC2(CO1)C(=O)O[C@@H]1C[C@]3(C)[C@@H](CC[C@@H](C)O)[C@@H]3C[C@@H]12 (some centres undefined),IC50,HL-60 [7],8700 nM
C=C1CCC[C@]2(C)CC[C@@H](C(C)C)[C@H](NC(=O)N(CC(=O)O)[C@@H]3[C@H]4C(=C)CCC[C@]4(C)CC[C@H]3C(C)C)[C@@H]12,IC50,L1210,2.6 µg/mL
same,IC50,KB,2.6 µg/mL
C/C=C(\C)C(=O)O[C@@H]1CC([C@H](O)[C@]2(C)C=C3OC(=O)C4=C3[C@H]2[C@H]2OC(=O)[C@H](C)[C@@H]2[C@H](OC(=O)/C(C)=C/C)C4)=C2C(=O)C=C(C)[C@@H]2[C@H]2OC(=O)[C@H](C)[C@@H]21,IC50,Plasmodium falciparum,2000 nM
C=C1C(=O)O[C@H]2C[C@H](C)[C@@]34C[C@@H](C[C@@]35C(=O)O[C@H]3C=C(C)[C@H]6CC[C@@](C)(O)[C@@H]6C[C@@H]35)C(C)=C4C[C@H]12,IC50,CCRF-CEM,2030 nM
C=C1C(=O)O[C@H]2[C@@H]1CCC1=C(C)[C@H]3CC1(C[C@@]31C(=O)O[C@H]3C[C@H](C)[C@@]45C[C@@]6(C(=O)O[C@@H]7C[C@H](C)C(CCC(C)=O)=CC[C@@H]76)[C@@H](C(C)=C4C[C@@H]31)C5OC(C)=O)[C@H]2C (some centres undefined),IC50,RAW264.7 [8],1900 nM
C=C1CC[C@H]2C(=C)C(=O)O[C@@H]2[C@@H]2[C@H]1[C@@H](C[C@@H]1C(=O)C3C4[C@H]1[C@H]1OC(=O)C(=C)[C@@H]1CC[C@@]4(O)CC[C@]31C(=O)C[C@H]3C(=C)CC[C@H]4C(=C)C(=O)O[C@@H]4[C@H]31)C(=O)[C@@]2(O)CC[C@@H]1C(=O)C[C@H]2C(=C)CC[C@H]3C(=C)C(=O)O[C@@H]3[C@@H]12 (some centres undefined),IC50,HL-60 [9],2000 nM
same,IC50,A549,2000 nM
same,IC50,Bel-7402,2000 nM
same,IC50,HT-29,2000 nM
C=C1C(=O)O[C@H]2C[C@H](C)[C@@]34C[C@@H](C[C@@]35C(=O)O[C@H]3CC(=C)[C@H]6CC[C@@](C)(O)[C@@H]6C[C@@H]35)C(C)=C4C[C@H]12,IC50,CCRF-CEM,2030 nM
C=C1CC[C@H]2C(=C)CC[C@@H]3[C@H](OC(=O)[C@]3(CC(C)=O)C[C@@H]3C(=O)O[C@@H]4/C=C(/C)CC/C=C(/C)CC[C@@H]34)[C@@H]12,IC50,RAW264.7 [5],1880 nM
C=C1CC[C@H]2C(=C)CC[C@@H]3[C@H](OC(=O)[C@]3(CC(C)O)C[C@@H]3C(=O)O[C@H]4[C@H]3CCC(=C)[C@@H]3CCC(=C)[C@@]34C)[C@@H]12 (some centres undefined),IC50,RAW264.7 [5],2460 nM
C=C1C(=O)O[C@H]2C[C@H](C)C3=C(C[C@H]12)[C@]1(C)C[C@H]3C[C@@]12C(=O)O[C@@H]1C[C@H](C)C(CC[C@H](C)O)=CC[C@@H]12,IC50,HL-60 [2],4900 nM
C=C1C(=O)O[C@H]2C[C@H](C)C3=C(C[C@H]12)[C@]1(C)C[C@H]3C[C@@]12C(=O)O[C@@H]1C[C@H](C)C(CCC(C)=O)=CC[C@@H]12,IC50,HL-60 [2],7500 nM
C=C1CC[C@H]2C(=C)CC[C@@H]3[C@H](OC(=O)[C@H]3C[C@@]3(CC(C)=O)C(=O)O[C@@H]4C/C(C)=C\CC/C=C(/C)C[C@H]43)[C@@H]12,IC50,RAW264.7 [5],4890 nM
CC(=O)C1=C(Oc2oc3c(c2C)C[C@@]2(C)[C@H](CCC[C@@H]2C)[C@@H]3O)C[C@H]2CCC[C@H](C)[C@@]2(C)C1,IC50,MGC-803,11900 nM
same,IC50,HepG2,11900 nM
same,IC50,CCRF S-180,11900 nM
C=C1CC[C@H]2C(=C)CC[C@@H]3[C@H](OC(=O)[C@]3(CC(C)=O)C[C@@H]3CC[C@H]4C(=C)CC[C@H]5C(=C)C(=O)O[C@@H]5[C@@H]34)[C@@H]12,EC50,PC-12,2110 nM
C=C1CC[C@H]2C(=C)C(=O)O[C@@H]2[C@@H]2[C@H]1[C@@H](C[C@@H]1C(=O)C3C4[C@H]1[C@H]1OC(=O)C(=C)[C@@H]1CC[C@]4(O)CC[C@]31C(=O)C[C@H]3C(=C)CC[C@H]4C(=C)C(=O)O[C@@H]4[C@H]31)C(=O)[C@@]2(O)CC[C@@H]1C(=O)C[C@H]2C(=C)CC[C@H]3C(=C)C(=O)O[C@@H]3[C@@H]12 (some centres undefined),IC50,HL-60 [9],2000 nM
same,IC50,A549,2000 nM
same,IC50,Bel-7402,2000 nM
same,IC50,HT-29,2000 nM
